Reference: ChEMBL document CHEMBL4406836, “The design of a cell-selective fowlicidin-1-derived peptide with both antimicrobial and anti-inflammatory activities” (Eur J Med Chem, 2019)
In brackets after ≈: the same amount, converted by molar mass. Activity calls are given as the source filed them. The rule behind the calls is not given here.

What was measured:
[1] = system: Staphylococcus aureus; experiment: Antibacterial activity against methicillin-resistant Staphylococcus aureus CCARM 3089 assessed as reduction in bacterial growth incubated for 72 hrs in presence of 128 uM chloramphenicol by spectrophotometry; assay type: functional; conditions: CCARM 3089, 72 h
[2] = system: Staphylococcus aureus; experiment: Potentiation of oxacillin-induced antibacterial activity against methicillin-resistant Staphylococcus aureus CCARM 3089 assessed as reduction in oxacillin MIC at 1/16th MIC incubated for 72 hrs by spectrophotometry; assay type: functional
[3] = system: Staphylococcus aureus; experiment: (§1) Fractional inhibitory concentration index, sum of ratio of MIC of compound in presence of […] uM oxacillin to MIC of oxacillin and ratio of MIC of compound in presence of oxacillin to MIC of oxacillin for antibacterial activity against methicillin-resistant Staphylococcus aureus CCARM 3089; assay type: functional
[4] = system: Staphylococcus aureus; experiment: Induction of cytoplasmic membrane depolarization in Staphylococcus aureus at 2 times of MIC for a period of 600 sec by DiSC3-5-fluorescence based assay; assay type: functional, organism-based
[5] = system: Staphylococcus aureus; experiment: Fractional inhibitory concentration, ratio of MIC of compound in presence of oxacillin to MIC of oxacillin for antibacterial activity against methicillin-resistant Staphylococcus aureus CCARM 3089; assay type: functional
[6] = system: Staphylococcus aureus; experiment: Potentiation of ciprofloxacin-induced antibacterial activity against methicillin-resistant Staphylococcus aureus CCARM 3089 assessed as reduction in ciprofloxacin MIC at 1/16th MIC incubated for 72 hrs by spectrophotometry; assay type: functional
[7] = system: Staphylococcus aureus; experiment: Fractional inhibitory concentration, ratio of MIC of compound in presence of […] uM ciprofloxacin to MIC of ciprofloxacin for antibacterial activity against methicillin-resistant Staphylococcus aureus CCARM 3089; assay type: functional
[8] = system: Pseudomonas aeruginosa; assay type: functional; conditions: CCARM 2095, 72 h
[9] = system: Pseudomonas aeruginosa; experiment: Potentiation of chloramphenicol-induced antibacterial activity against mutidrug-resistant Pseudomonas aeruginosa CCARM 2095 assessed as reduction in chloramphenicol MIC at 1/16th MIC incubated for 72 hrs by spectrophotometry; assay type: functional
[10] = system: Pseudomonas aeruginosa; experiment: Antibacterial activity against multidrug-resistant Pseudomonas aeruginosa CCARM 2095 assessed as reduction in bacterial growth incubated for 72 hrs by spectrophotometry; assay type: functional; conditions: CCARM 2095, 72 h
[11] = system: Pseudomonas aeruginosa; experiment: (§2) Fractional inhibitory concentration index, sum of ratio of MIC of compound in presence of […] uM oxacillin to MIC of chloramphenicol and ratio of MIC of compound in presence of oxacillin to MIC of compound for antibacterial activity against multidrug-resistant Pseudomonas aeruginosa CCARM 2095; assay type: functional
[12] = system: Staphylococcus aureus; experiment: Fractional inhibitory concentration, ratio of MIC of compound in presence of 128 uM chloramphenicol to MIC of chloramphenicol for antibacterial activity against methicillin-resistant Staphylococcus aureus CCARM 3089; assay type: functional
[13] = system: Staphylococcus aureus; experiment: Fractional inhibitory concentration, ratio of MIC of compound in presence of ciprofloxacin to MIC of ciprofloxacin for antibacterial activity against methicillin-resistant Staphylococcus aureus CCARM 3089; assay type: functional
[14] = system: Staphylococcus aureus; experiment: Antibacterial activity against methicillin-resistant Staphylococcus aureus CCARM 3090 assessed as reduction in bacterial growth incubated for 18 hrs by spectrophotometry based microtiter broth dilution method; assay type: functional; conditions: CCARM 3090, 18 h
[15] = system: Staphylococcus aureus; experiment: Antibacterial activity against methicillin-resistant Staphylococcus aureus CCARM 3089 assessed as reduction in bacterial growth incubated for 18 hrs by spectrophotometry based microtiter broth dilution method; assay type: functional; conditions: CCARM 3089, 18 h
[16] = system: Staphylococcus aureus; experiment: Induction of cytoplasmic membrane depolarization in Staphylococcus aureus at 2 times of MIC within 4 mins by SYTOX green-based assay; assay type: functional, organism-based
[17] = system: Pseudomonas aeruginosa; experiment: Fractional inhibitory concentration, ratio of MIC of compound in presence of […] uM ciprofloxacin to MIC of ciprofloxacin for antibacterial activity against multidrug-resistant Pseudomonas aeruginosa CCARM 2095; assay type: functional
[18] = system: Staphylococcus aureus; assay type: functional; conditions: CCARM 3089, 72 h
[19] = system: Staphylococcus aureus; experiment: Fractional inhibitory concentration, ratio of MIC of compound in presence of chloramphenicol to MIC of chloramphenicol for antibacterial activity against methicillin-resistant Staphylococcus aureus CCARM 3089; assay type: functional
[20] = system: Pseudomonas aeruginosa; experiment: Antibacterial activity against multidrug-resistant Pseudomonas aeruginosa CCARM 2095 assessed as reduction in bacterial growth incubated for 18 hrs by spectrophotometry based microtiter broth dilution method; assay type: functional; conditions: CCARM 2095, 18 h
[21] = system: Staphylococcus aureus; experiment: Fractional inhibitory concentration index, sum of ratio of MIC of compound in presence of 128 uM chloramphenicol to MIC of chloramphenicol and ratio of MIC of compound in presence of chloramphenicol to MIC of chloramphenicol for antibacterial activity against methicillin-resistant Staphylococcus aureus CCARM 3089; assay type: functional
[22] = system: Staphylococcus aureus; experiment: Antibacterial activity against methicillin-resistant Staphylococcus aureus CCARM 3089 assessed as reduction in bacterial growth incubated for 72 hrs by spectrophotometry; assay type: functional; conditions: CCARM 3089, 72 h
[23] = system: Pseudomonas aeruginosa; assay type: functional; conditions: CCARM 2095, 72 h; remark: listed apart in the source
[24] = system: Pseudomonas aeruginosa; experiment: Fractional inhibitory concentration, ratio of MIC of compound in presence of oxacillin to MIC of compound for antibacterial activity against multidrug-resistant Pseudomonas aeruginosa CCARM 2095; assay type: functional
[25] = system: Staphylococcus aureus; assay type: functional; conditions: CCARM 3089, 72 h; remark: listed apart in the source
[26] = system: Escherichia coli; experiment: Induction of membrane integrity disruption in Escherichia coli at 2 times of MIC by propidium iodide staining based flow cytometry relative to control (reference value: 2.97 %); assay type: functional
[27] = system: Pseudomonas aeruginosa; experiment: as §2, with “[…]” for “oxacillin”; assay type: functional
[28] = system: Pseudomonas aeruginosa; experiment: Fractional inhibitory concentration, ratio of MIC of compound in presence of […] uM chloramphenicol to MIC of chloramphenicol for antibacterial activity against multidrug-resistant Pseudomonas aeruginosa CCARM 2095; assay type: functional
[29] = system: Enterococcus faecium; experiment: Antibacterial activity against vancomycin-resistant Enterococcus faecium ATCC 51559 assessed as reduction in bacterial growth incubated for 18 hrs by spectrophotometry based microtiter broth dilution method; assay type: functional; conditions: ATCC 51559, 18 h
[30] = system: Staphylococcus aureus; experiment: Antibacterial activity against methicillin-resistant Staphylococcus aureus CCARM 3095 assessed as reduction in bacterial growth incubated for 18 hrs by spectrophotometry based microtiter broth dilution method; assay type: functional; conditions: CCARM 3095, 18 h
[31] = system: Pseudomonas aeruginosa; experiment: Antibacterial activity against multidrug-resistant Pseudomonas aeruginosa CCARM 2109 assessed as reduction in bacterial growth incubated for 18 hrs by spectrophotometry based microtiter broth dilution method; assay type: functional; conditions: CCARM 2109, 18 h
[32] = system: Staphylococcus aureus; experiment: Potentiation of chloramphenicol-induced antibacterial activity against methicillin-resistant Staphylococcus aureus CCARM 3089 assessed as reduction in chloramphenicol MIC at 1/16th MIC incubated for 72 hrs by spectrophotometry; assay type: functional
[33] = system: Pseudomonas aeruginosa; experiment: as §2, with “chloramphenicol” for “oxacillin”; assay type: functional
[34] = system: Staphylococcus aureus; experiment: as §1, with “ciprofloxacin” for “oxacillin”; assay type: functional
[35] = system: Pseudomonas aeruginosa; experiment: Fractional inhibitory concentration, ratio of MIC of compound in presence of ciprofloxacin to MIC of compound for antibacterial activity against multidrug-resistant Pseudomonas aeruginosa CCARM 2095; assay type: functional
[36] = system: Pseudomonas aeruginosa; experiment: Fractional inhibitory concentration, ratio of MIC of compound in presence of chloramphenicol to MIC of compound for antibacterial activity against multidrug-resistant Pseudomonas aeruginosa CCARM 2095; assay type: functional

Compound	MIC [1] [µM]	fold change (FC) [2]	fractional inhibitory concentration index (FICI) [3]	Activity [4]	FIC [5]	fold change (FC) [6]	FIC [7]	MIC [8] [µM]	fold change (FC) [9]	MIC [10] [µM]	fractional inhibitory concentration index (FICI) [11]	FIC [12]	FIC [13]	MIC [14] [µM]	MIC [15] [µM]	Activity [16]	FIC [17]	MIC [18] [µM]	FIC [19]	MIC [20] [µM]	other results
CC[C@H](C)[C@H](NC(=O)[C@H](CCCCN)NC(=O)[C@H](CCC(=O)O)NC(=O)[C@H](CCCCN)NC(=O)[C@H](CO)NC(=O)[C@H](CCCCN)NC(=O)[C@H](CCCNC(=N)N)NC(=O)[C@H](Cc1ccccc1)NC(=O)[C@H](Cc1ccccc1)NC(=O)[C@H](CC(=O)O)NC(=O)CNC(=O)[C@H](CC(C)C)NC(=O)[C@@H](N)CC(C)C)C(=O)NCC(=O)N[C@@H](CCCCN)C(=O)N[C@@H](CCC(=O)O)C(=O)N[C@@H](Cc1ccccc1)C(=O)N[C@@H](CCCCN)C(=O)N[C@@H](CCCNC(=N)N)C(=O)N[C@H](C(=O)N[C@H](C(=O)N[C@@H](CCC(N)=O)C(=O)N[C@@H](CCCNC(=N)N)C(=O)N[C@H](C(=O)N[C@@H](CCCCN)C(=O)N[C@@H](CC(=O)O)C(=O)N[C@@H](Cc1ccccc1)C(=O)N[C@@H](CC(C)C)C(=O)N[C@@H](CCCNC(=N)N)C(=O)N[C@@H](CC(N)=O)C(=O)N[C@@H](CC(C)C)C(=O)N[C@H](C(=O)N1CCC[C@H]1C(=O)N[C@@H](CCCNC(=N)N)C(=O)N[C@H](C(=O)N[C@@H](CCC(=O)O)C(=O)N[C@@H](CO)C(=O)O)[C@@H](C)O)C(C)C)[C@@H](C)CC)C(C)C)[C@@H](C)CC [CATHELICIDIN]	64	2 - 16	0.75	Active	0.25	2 - 16	0.25	128 (≈ 575 µg/mL)	2 - 4	4 (≈ 18 µg/mL)	2	0.5	1	4 (≈ 18 µg/mL)	8 (≈ 35.9 µg/mL)	Active	0.25	256 (≈ 1150 µg/mL)	0.5	4 (≈ 18 µg/mL)	fractional inhibitory concentration index (FICI) [21]: 1; MIC [22]: 8 µM (≈ 35.9 µg/mL); MIC [23]: 512 µM (≈ 2300 µg/mL); FIC [24]: 1; MIC [25]: 256 µM (≈ 1150 µg/mL); Activity [26]: 55.5%; fractional inhibitory concentration index (FICI) [27]: 0.75; FIC [28]: 0.25; MIC [29]: 8 µM (≈ 35.9 µg/mL); MIC [30]: 16 µM (≈ 71.9 µg/mL); MIC [31]: 8 µM (≈ 35.9 µg/mL); fold change (FC) [32]: 2 - 16; fractional inhibitory concentration index (FICI) [33]: 0.75; fractional inhibitory concentration index (FICI) [34]: 1.25; FIC [35]: 0.5; FIC [36]: 0.5
H-LVIRWVRAGYKLYRAIKKK-NH2	16	4 - 32	0.5	Active	0.25	4 - 32	0.25	64	4 - 16	2	0.5	0.125	0.125	2	4	Active	0.125	256	0.125	2	fractional inhibitory concentration index (FICI) [21]: 0.25; MIC [22]: 4 µM; MIC [23]: 128 µM; FIC [24]: 0.25; MIC [25]: 128 µM; Activity [26]: 68.98%; fractional inhibitory concentration index (FICI) [27]: 0.625; FIC [28]: 0.031; MIC [29]: 4 µM; MIC [30]: 2 µM; MIC [31]: 4 µM; fold change (FC) [32]: 4 - 32; fractional inhibitory concentration index (FICI) [33]: 0.281; fractional inhibitory concentration index (FICI) [34]: 0.375; FIC [35]: 0.5; FIC [36]: 0.25
